In ChEMBL document CHEMBL1926587, “Molecular insights into human monoamine oxidase (MAO) inhibition by 1,4-naphthoquinone: evidences for menadione (vitamin K3) acting as a competitive and reversible inhibitor of MAO” (Bioorg Med Chem, 2011):
Active and inactive are the calls of the source. The calls are words filed in the database; no cut-off is given here.

Key:
[1] = target: T1, Amine oxidase [flavin-containing] B (Homo sapiens, UniProt P27338); assay: Competitive inhibition of human recombinant MAO-B expressed in baculovirus infected insect cells assessed as increase in Km at 5 uM by Lineweaver-Burk plot analysis
T1 sequence (P27338 whole entry): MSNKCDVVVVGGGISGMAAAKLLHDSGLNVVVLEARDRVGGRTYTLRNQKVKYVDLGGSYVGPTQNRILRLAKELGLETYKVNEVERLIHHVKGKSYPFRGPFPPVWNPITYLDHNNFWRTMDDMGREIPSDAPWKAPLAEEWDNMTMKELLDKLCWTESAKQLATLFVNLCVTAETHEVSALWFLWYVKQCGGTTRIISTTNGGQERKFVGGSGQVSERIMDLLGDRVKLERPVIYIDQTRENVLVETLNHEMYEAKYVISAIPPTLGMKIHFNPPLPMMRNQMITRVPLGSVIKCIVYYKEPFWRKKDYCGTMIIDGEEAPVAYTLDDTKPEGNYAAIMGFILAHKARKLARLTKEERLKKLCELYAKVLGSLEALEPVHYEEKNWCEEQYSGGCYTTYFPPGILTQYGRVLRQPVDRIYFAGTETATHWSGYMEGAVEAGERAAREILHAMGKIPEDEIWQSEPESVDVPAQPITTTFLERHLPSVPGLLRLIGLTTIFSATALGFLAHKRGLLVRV

[2] = target: T1, Amine oxidase [flavin-containing] B; assay: Competitive inhibition of human recombinant MAO-B expressed in baculovirus infected insect cells using benzylamine as substrate by Lineweaver-Burk plot analysis
[3] = target: T2, Amine oxidase [flavin-containing] A (Homo sapiens, UniProt P21397); assay: Reversible inhibition of human recombinant MAO-A expressed in baculovirus infected insect cells assessed as increase in Vmax at 5 uM preincubated for 20 mins measured 3 hrs post dialysis by Lineweaver-Burk plot analysis
T2 sequence (P21397 whole entry): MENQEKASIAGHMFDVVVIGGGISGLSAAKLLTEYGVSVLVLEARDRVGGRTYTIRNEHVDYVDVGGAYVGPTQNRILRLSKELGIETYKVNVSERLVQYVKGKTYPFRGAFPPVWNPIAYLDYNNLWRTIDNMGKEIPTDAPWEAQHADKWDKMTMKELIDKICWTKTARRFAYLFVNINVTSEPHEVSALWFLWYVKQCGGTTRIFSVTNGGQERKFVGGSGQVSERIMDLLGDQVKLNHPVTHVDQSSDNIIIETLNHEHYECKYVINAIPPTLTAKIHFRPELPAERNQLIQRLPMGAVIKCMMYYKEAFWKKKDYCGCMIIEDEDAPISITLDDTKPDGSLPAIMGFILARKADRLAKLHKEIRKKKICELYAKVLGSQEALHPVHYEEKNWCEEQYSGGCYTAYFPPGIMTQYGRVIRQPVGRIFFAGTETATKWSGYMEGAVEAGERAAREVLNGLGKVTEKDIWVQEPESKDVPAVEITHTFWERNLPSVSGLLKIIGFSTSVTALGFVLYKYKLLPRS

[4] = target: T1, Amine oxidase [flavin-containing] B; assay: Reversible inhibition of human recombinant MAO-B expressed in baculovirus infected insect cells assessed as decrease in Km at 5 uM preincubated for 20 mins measured 3 hrs post dialysis by Lineweaver-Burk plot analysis
[5] = target: T1, Amine oxidase [flavin-containing] B; assay: Competitive inhibition of human recombinant MAO-B expressed in baculovirus infected insect cells assessed as reduction in fluorescence at 20 to 25 uM by spectrofluorimetry relative to control; set-up: scale not given: the % may be the effect or the level left
Armoracia rusticana = assay: Inhibition of horseradish peroxidase at 100 uM after 45 mins by amplex red assay in the presence of hydrogen peroxide
[6] = target: T2, Amine oxidase [flavin-containing] A; assay: Noncompetitive inhibition of human recombinant MAO-A expressed in baculovirus infected insect cells using p-tyramine as substrate by Lineweaver-Burk plot analysis
[7] = target: T2, Amine oxidase [flavin-containing] A; assay: Noncompetitive inhibition of human recombinant MAO-A expressed in baculovirus infected insect cells assessed as reduction in Vmax at 5 uM by Lineweaver-Burk plot analysis
[8] = target: T1, Amine oxidase [flavin-containing] B; assay: Competitive inhibition of human recombinant MAO-B expressed in baculovirus infected insect cells assessed as reduction in fluorescence at 10 to 12 uM by spectrofluorimetry relative to control; set-up: scale not given: the % may be the effect or the level left
[9] = target: T2, Amine oxidase [flavin-containing] A; assay: Reversible inhibition of human recombinant MAO-A expressed in baculovirus infected insect cells assessed as decrease in Km at 5 uM preincubated for 20 mins measured 3 hrs post dialysis by Lineweaver-Burk plot analysis
[10] = target: T2, Amine oxidase [flavin-containing] A; assay: Competitive inhibition of human recombinant MAO-A expressed in baculovirus infected insect cells assessed as increase in Km at 5 uM by Lineweaver-Burk plot analysis
Homo sapiens = species on record: Homo sapiens; assay: Selectivity ratio of Ki for human recombinant MAO-A to Ki for human recombinant MAO-B
[11] = target: T2, Amine oxidase [flavin-containing] A; assay: Competitive inhibition of human recombinant MAO-A expressed in baculovirus infected insect cells using p-tyramine as substrate by Lineweaver-Burk plot analysis
Rattus norvegicus = species on record: Rattus norvegicus; assay: Selectivity ratio of Ki for rat MAO-A to Ki for rat MAO-B
[12] = target: T1, Amine oxidase [flavin-containing] B; assay: Competitive inhibition of human MAO-B
[13] = target: T2, Amine oxidase [flavin-containing] A; assay: Competitive inhibition of human MAO-A

Structure (SMILES)	inhibition (INH) [1]	Ki [2] [µM]	inhibition (INH) [4]	inhibition (Armoracia rusticana)	Ratio Ki (Homo sapiens)	Ratio Ki (Rattus norvegicus)	other results
O=C1C=CC(=O)c2ccccc21 [NAPHTHOQUINONE]	Active	1.5	Active	inactive			inhibition (INH) [3]: Active; Activity [5]: 50%; Ki [6]: 7.7 µM; inhibition (INH) [7]: Active
CC1=CC(=O)c2ccccc2C1=O [MENADIONE]	Active	0.4	Active	inactive	60		Activity [8]: 50%; inhibition (INH) [9]: Active; inhibition (INH) [10]: Active; Ki [11]: 26 µM
C#CCN(C)[C@H](C)Cc1ccccc1					250	250	
C#CCN[C@@H]1CCc2ccccc21					50	93	
CC1=C(C)C(=O)c2cc(C)ccc2C1=O							Ki [12]: 3 µM; Ki [13]: 6 µM
